Measurements as given in PubChem BioAssay (NCI).
Where “and” joins values, the source holds several entries; their conditions need not be identical. Equal entries are not always repeated.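 Growth conditions: 96-well plates. Treatment: test compound, 48 hours, 5 concentrations. Analysis: linear interpolation between bracketing concentrations; unreached endpoints set to highest concentration. Abbreviation: GI50, concentration required for 50% inhibition of growth. The concentration for full growth arrest is given as TGI.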

How the values were obtained:
Assay in all cases: inhibition of tumour cell growth, NCI panel, 48 h
[1] = system: A549 NSCLC
[2] = system: CAKI-1 renal
[3] = system: HCC-2998 colon
[4] = system: KM12 colon
[5] = system: MALME-3M melanoma
[6] = system: NCI-H522 lung
[7] = system: NCI/ADR-RES ovarian
[8] = system: RPMI-8226 leukemia
[9] = system: SK-MEL-28 melanoma
[10] = system: T-47D breast

SMILES	GI50 [1]	TGI [1]	GI50 [2]	TGI [2]	GI50 [3]	TGI [3]	GI50 [4]	TGI [4]	GI50 [5]	TGI [5]	GI50 [6]	TGI [6]	GI50 [7]	TGI [7]	GI50 [8]	TGI [8]	GI50 [9]	TGI [9]	GI50 [10]	TGI [10]
CCc1ccc([OH2+])c(C(=O)[O-])c1.CCc1ccc([OH2+])c(C(=O)[O-])c1.CCc1ccc([OH2+])c(C(=O)[O-])c1.CCc1ccc([OH2+])c(C(=O)[O-])c1.[Cu+2].[Cu+2]	38.6 µM	> 100 µM	24.9 µM	> 82.4 µM	64.8 µM	> 100 µM	53.6 µM	> 100 µM	> 100 µM	> 100 µM	> 86 µM	> 100 µM	17.3 µM	> 100 µM	41.3 µM	> 100 µM	> 100 µM	> 100 µM	> 100 µM	> 100 µM
COc1cc(C(=O)/C=C/c2c[nH]c3ccccc23)cc(OC)c1OC	0.0339 µM	24.2 µM	< 0.0193 µM	29.8 µM	0.0959 µM	7.59 µM	0.0217 µM	11.2 µM	0.0381 µM	18 µM	< 0.0107 µM	0.0391 µM	< 0.0144 µM	33.6 µM	0.0319 µM	2.82 µM	0.494 µM	41.9 µM	0.0393 µM	18.4 µM
NS(=O)(=O)c1cccc(Nc2cc(-c3ccc(F)cc3)[nH]n2)c1	> 24.1 µM	> 25 µM	12.4 µM	> 25 µM	> 25 µM	> 25 µM	8.22 µM	> 25 µM	> 25 µM	> 25 µM	> 25 µM	> 25 µM	> 25 µM	> 25 µM	> 25 µM	> 25 µM	> 25 µM	> 25 µM	> 23.3 µM	> 25 µM
O=C(NOCCO)c1ccc2cncn2c1Nc1ccc(I)cc1F	0.143 µM and 0.132 µM	> 100 µM	0.111 µM and 0.292 µM	> 100 µM	0.00299 µM and < 0.01 µM		0.0268 µM and 0.018 µM	> 100 µM	0.00203 µM and < 0.01 µM	0.0186 µM and < 0.01 µM	> 3.69 µM and 16.9 µM	> 100 µM	> 10 µM and 29.4 µM	> 100 µM	> 10 µM and 24.6 µM	> 100 µM	0.003 µM and < 0.01 µM	0.0717 µM and 0.198 µM	> 10 µM and 51.1 µM	> 100 µM
CC/C(=C/c1ccc(OC)cc1)[N+](=O)[O-]	6.07 µM	19.6 µM	1.67 µM	3.33 µM	1.89 µM	3.42 µM	2.24 µM	5.47 µM	1.78 µM	3.77 µM	1.56 µM	3.06 µM	3.13 µM	11.5 µM	1.76 µM	5.31 µM	1.68 µM	3.44 µM	1.82 µM	5.95 µM
COc1ccc2c(Cl)cc(NC(=S)Nc3ccccc3)nc2c1		> 100 µM		> 100 µM				37.9 µM		69.4 µM		34.8 µM		54.1 µM		59.9 µM		97.9 µM		45.3 µM
Cc1ccc(C)c(N2CCN(c3ccncc3N)CC2)c1	17.5 µM	> 100 µM	13.4 µM	83.9 µM	15.7 µM	31.8 µM	15.1 µM	47.1 µM	17.6 µM	40.7 µM	9.97 µM	26.7 µM	14.5 µM	> 100 µM	11.7 µM	35.5 µM	19.6 µM	40.8 µM	3.23 µM	30.3 µM
COc1cccc(/C=C\C(=O)c2ccccc2)c1	15 µM	40.5 µM	9.66 µM	24.8 µM	8.72 µM	25.7 µM	2.3 µM	4.91 µM	14.3 µM	31.4 µM	2.06 µM	4.62 µM	17.2 µM	> 100 µM	16.2 µM	> 100 µM	4.31 µM	15 µM	9.72 µM	41.3 µM
CC1CCc2c(C(=O)Nc3ncc(Cc4cccc([N+](=O)[O-])c4)s3)csc2C1 (stereo not drawn)	0.944 µM	> 100 µM	0.431 µM	> 100 µM	1.51 µM	> 100 µM	0.442 µM	> 100 µM	1 µM	> 100 µM	0.387 µM		0.46 µM	> 100 µM	1.14 µM	> 100 µM	3.66 µM	> 100 µM	0.653 µM	> 100 µM
CN1CCN(Cc2ccc(NC(=O)c3cncc(C#Cc4c(N)ncc5ccccc45)c3)cc2C(F)(F)F)CC1	0.668 µM	1.45 µM	0.765 µM	1.44 µM	0.619 µM	1.26 µM	0.005 µM	0.618 µM	0.31 µM	0.979 µM	0.681 µM	1.53 µM	0.945 µM	2.21 µM	0.835 µM	2.36 µM	0.767 µM	1.48 µM	0.831 µM	1.66 µM
COc1ccc2c(c1O)[C@@]13CCCC=C1[C@@H](C2)N(C)CC3		> 100 µM		> 100 µM		> 100 µM		> 100 µM		3.35 µM		76.2 µM		> 100 µM		> 100 µM		> 100 µM		> 100 µM
COc1cc(/C=N\Nc2ccccc2)ccc1OC(=O)c1ccccc1	4.01 µM	37.5 µM	2.27 µM	33.7 µM	3.83 µM	17.1 µM	0.778 µM	> 68.8 µM	7.55 µM	> 100 µM	1.02 µM	> 76.6 µM	0.903 µM	> 100 µM	3.79 µM	> 55.9 µM	19.2 µM	> 93.1 µM	0.268 µM	> 85.9 µM
O=C(O)CCCCCNCc1cc2cc3c(cc2c2cc(OCc4ccccc4)ccc12)OCO3	1.55 µM	3.17 µM	3.17 µM	12 µM	1.71 µM	3.37 µM	1.63 µM	3.19 µM	1.88 µM	3.57 µM	1.76 µM	3.45 µM	2.88 µM	11.1 µM			1.78 µM	3.33 µM	2.06 µM	5.04 µM
CC[C@H](C)[C@H](NC(=O)CN(C)C)C(=O)N(C)[C@H](C[C@@H](OC(C)=O)c1nc(C(=O)NC23C4C5C2C2C3C4C52C(=O)OC)cs1)C(C)C (stereo partly drawn)	2.12 µM	> 33.2 µM	7.13 µM	> 33.2 µM	0.631 µM	> 33.2 µM	0.74 µM	> 33.2 µM		> 33.2 µM	0.11 µM	> 10.8 µM	11.1 µM	> 33.2 µM	0.115 µM	> 11.4 µM	1.38 µM	> 33.2 µM	> 33.2 µM	> 33.2 µM
N#Cc1cnn(C(=O)c2nn(-c3ccc(Cl)cc3)cc2O)c1N	0.201 µM	16.5 µM	0.259 µM	1.47 µM	0.623 µM	18 µM	0.374 µM	22.2 µM	0.926 µM	13.6 µM	0.173 µM	1.47 µM	0.401 µM	8.78 µM	0.21 µM	0.657 µM	0.63 µM	27.3 µM	0.294 µM	19.1 µM
COC(=O)c1sc(-n2cnc3cc(OC)c(OC)cc32)cc1OCc1ccccc1C(F)(F)F	> 25 µM	> 25 µM	> 25 µM	> 25 µM	> 25 µM	> 25 µM	> 25 µM	> 25 µM	> 25 µM	> 25 µM	17.7 µM	> 25 µM	> 25 µM	> 25 µM	> 25 µM	> 25 µM	> 25 µM	> 25 µM	> 25 µM	> 25 µM
Nc1nc(SCC#CCCl)c2[nH]cnc2n1	7.04 µM	19.8 µM	2.83 µM	10.6 µM	5.85 µM	18.9 µM	6.14 µM	18.6 µM	4.81 µM	24 µM	1.47 µM	2.95 µM	6.16 µM	30.4 µM	6.86 µM	48.8 µM	11.7 µM	27.2 µM	5.26 µM	21.1 µM
COc1cc(/C=N/NC(=O)c2cnn3c2NC(c2ccccc2)C3)ccc1OCc1ccccc1 (stereo not drawn)	1.17 µM	3.75 µM	0.597 µM	3.99 µM	2.35 µM	24.5 µM	0.412 µM	2.35 µM	0.616 µM	3.7 µM	0.391 µM	3.9 µM	1.51 µM	10.9 µM	0.955 µM	23.6 µM	1.36 µM	5.11 µM	1.22 µM	> 37.5 µM
O=C(NCCN1CCOCC1)c1cc2c(Oc3ccc(NC(=O)C4(C(=O)Nc5ccc(F)cc5)CC4)cc3)ccnc2[nH]1	4.9 µM	48.6 µM	13.7 µM	> 100 µM	15.3 µM	51.9 µM	0.412 µM	> 40.9 µM	1.1 µM	14.4 µM	7.69 µM	28.1 µM	22.9 µM	> 100 µM	9.45 µM	42.2 µM	4.37 µM	19.4 µM	4.43 µM	46 µM
COc1oc(C2C/C(=C/C(C)=C/C(C)=C/C(C)=C/c3ccc([N+](=O)[O-])cc3)CO2)c(C)c(=O)c1C (stereo not drawn)		68.3 µM		30.9 µM		> 100 µM		> 48.2 µM		16.2 µM		15.5 µM		> 49.6 µM		20.9 µM		> 60.5 µM		6.81 µM
Nc1nc(N)c(CCCCc2ccc([N+](=O)[O-])cc2)c(N)n1		> 100 µM		> 100 µM		> 100 µM		> 100 µM		> 100 µM		> 100 µM		> 100 µM		> 100 µM				> 100 µM
O=C(Nc1c[nH]c(=O)[nH]c1=O)Oc1ccccc1		> 100 µM		> 100 µM		> 100 µM		> 100 µM		> 100 µM		> 100 µM		> 100 µM		> 100 µM		> 100 µM		> 100 µM
COc1cc2c3c(c4ccc(O)cc4c2cc1OC)[C@@H](O)[C@@H]1CCCN1C3		0.0026 µM		0.00285 µM		0.002 µM		0.00837 µM		0.00314 µM		0.00781 µM		0.532 µM		0.00384 µM		< 0.001 µM		0.00216 µM
O=C1c2ccc3c4c(ccc(c24)C(=O)N1CCCCO)C(=O)N(CCCCO)C3=O	1.93 µM	6.65 µM	2.27 µM	13.6 µM	1.91 µM	10.5 µM	2.27 µM	10.7 µM	0.254 µM	1.02 µM	1.55 µM	5.73 µM	2.33 µM	11 µM	2.79 µM	14.3 µM	2.6 µM	10.4 µM	2.54 µM	7.26 µM
C=C(CN1CCN(c2cc(C(F)(F)F)cc(C(F)(F)F)c2)CC1)c1ccc(C(=O)Nc2ccccc2N)cc1	19 µM	> 100 µM	2.81 µM	42.3 µM	4.28 µM	26.4 µM	3.47 µM	21.8 µM	13.8 µM	47.9 µM	5.21 µM	> 100 µM	5.82 µM	> 100 µM	1.65 µM	4.22 µM	3.68 µM	15.9 µM	8.97 µM	> 100 µM
O=C1c2ccccc2-c2cn(Cc3ccccc3)c3cccc(c23)C1c1cccnc1 (stereo not drawn)	3.2 µM	> 50 µM	2.74 µM	> 50 µM	11.4 µM	> 50 µM	2.27 µM	> 50 µM	10.2 µM	> 50 µM	2.28 µM	33.4 µM	1.97 µM	> 50 µM			4.12 µM	> 50 µM	2.32 µM	> 50 µM
CC1=C(\C=C/C(C)=C/C=C/C(C)=C/C=C/C=C(C)\C=C\C=C(C)/C=C/C2=C(C)CCCC2(C)C)C(C)(C)CCC1						> 100 µM		> 100 µM		> 100 µM		> 100 µM		> 100 µM				> 100 µM		> 100 µM
